From patent publication US8097656B2, “Nitrogenated trans-stilbene analogs, method for the obtention and medical applications thereof” (Dominion Pharmakine S.L, priority 2005, dated 2012)

Experiments:
MB16 cells = experiment: In vitro proliferation of MB16 cells in response to murine HSC soluble factors; format: cell-based; conditions: for Increase in proliferation of B16 cells by MC-CEH (in words): 2.5 μM for 30 minutes before MC-CEH, 48 hours; for Proliferation of MB16 cells in response to murine HSC soluble factors (No. cells per well): 2.5 μM, 30 min before HSC-conditioned media, 48 h, control 16300 ± 300, treatment alone 21660 ± 500
Procedure: (§1) Culture of B16 (MB16) and A375 (MA375) melanoma cells. The MB 16 (B16F10 subline) murine tumor cells were cultured at 37° C., with 5% CO2 atmosphere in Dulbecco's modified Eagle's medium (DMEM)-HCO3 penicillin (100 U/ml), streptomycin (100 μg/ml), supplemented with 5% fetal bovine serum and adjusted to pH 7.4. The cells were maintained and subcultured according to the method described by Vidal-Vanaclocha et al. (1994) [Vidal-Vanaclocha, F., Amézaga, C., Asumendi, A., Kaplanski, G. & Dinarello, C. A. Interleukin-1 receptor blockade reduces the number and size of murine B16 melanoma hepatic metastases. Cancer Research, 1994, 54, 2667-2672]. The conditioned media were obtained from subconfluyent cultures maintained in absence of FBS for 24 hours.
(§2) In vitro Melanoma cell proliferation test. The MB16 or MA375 cells are seeded (2500 cells/well/200 μl) in DMEM medium (Dulbecco's modified Eagle's medium) with 10% fetal bovine serum (FBS). Once adhered, they were washed to remove the FBS and fresh medium was added in the presence or absence of 2.5 μM of the compounds to be tested. In the experiments with MA375, the compound azaresveratrol (see Table 4) was used, and in the experiments with MB16 cells, the compounds azaresveratrol, JE1:2, JE2:1 or JE2:2 (see FIG. 3) were used. Thirty (30) minutes later, 10 ng/ml of IL-18 or HSC-conditioned media (murines in the case of B16 and human ones in the case of A375) were added to some wells, and the plates were incubated for 48 hours at 37° C. with 5% CO2 Upon completion of the incubation period, the cells were fixed with […] for 1 hours, were washed and were allowed to dry in the incubator at 50° C. for 30 minutes. In following, 100 μl/well of sulforhodamine 101 (0.4% p/v) was added and they were incubated at room temperature in the dark for 30 minutes. After washing, 200 μl/well of Tris base 10 mM pH 10.5 was added and the fluorescence was measured by means of a 530 nm, 620 nm emission excitation filter plate fluorescence reader. The number of cells was calculated by extrapolating said fluorescence data on a standard straight line previously obtained based on the fluorescence emitted in an increasing number of cells.

HSE cells = experiment: Migration of HSE cells treated with MC-MA375 (modified Boyden chamber); format: cell-based, human; conditions: for Increase in migration of HSE induced by MC-A375 (in words): 12.5 μM 30 min prior to MC-A375; for Migration of HSE's treated with MC-MA375 (No. cells per field): 12.5 μM, 30 min before MC-MA375, 24 h, control 10.0 ± 4, treatment alone 35.0 ± 8.0
Text: (§3) isolation of primary human cultures of hepatic sinusoidal endothelial (HSE) hepatic stellate cells (HSCs). The primary cultures of human HSE and HSC cells were obtained by non-tumoral hepatic tissue serial profusion with collagenase and pronase solutions, followed by Nycodenz gradient and seeded on 24-well plates (0.5×10^4 cells/cm^2) in DMEM. supplemented with 10% FBS.
(§4) Human HSC and HSE cell migration tests (see Table 3). Primary cultured hepatic endothelial cells (25×10^5) or hepatic stellate cells (2×10^4) were seeded in the upper compartment of modified Boyden chambers equipped with a polycarbonate filter of an 8 μm pore size. Some cells were incubated in the presence or absence of 12.5 μM of azaresveratrol, 30 minutes prior to adding conditioned tumor medium. Twenty-four (24) hours later (in the case of the endothelial cells) or 4 hours later (in the case of hepatic star cells) the number of cells having passed through the membrane was determined. The cells were fixed, were stained with hematoxylin eosine and were counted under the microscope (20×) in 5 fields per well.

MA375 cells = experiment: In vitro proliferation of MA375 cells in response to human HSC soluble factors; format: cell-based; conditions: for Increase in proliferation of A375 cells by MC-CEH (in words): 2.5 μM for 30 minutes before MC-CEH, 48 hours; for Proliferation of MA375 cells in response to human HSC soluble factors (No. cells per well): 2.5 μM, 30 min before HSC-conditioned media, 48 h, control 9000 ± 60, treatment alone 17500 ± 50
Procedure: as §1, §2

human HSC = experiment: Migration of human HSCs treated with MC-MA375 (modified Boyden chamber); format: cell-based; conditions: for Increase in migration of HSC induced by MC-A375 (in words): 12.5 μM 30 min prior to MC-A375; for Migration of human HSC's treated with MC-MA375 (No. cells migrated per field): 12.5 μM, 30 min before MC-MA375, 4 h, control 10.0 ± 4, treatment alone 91.5 ± 19
Text: as §3, §4

| SMILES | Increase in proliferation of B16 cells by MC-CEH (in words) (MB16 cells) | Proliferation of MB16 cells in response to murine HSC soluble factors (No. cells per well) (MB16 cells) | Increase in migration of HSE induced by MC-A375 (in words) (HSE cells) | Migration of HSE's treated with MC-MA375 (No. cells per field) (HSE cells) | Increase in proliferation of A375 cells by MC-CEH (in words) (MA375 cells) | Proliferation of MA375 cells in response to human HSC soluble factors (No. cells per well) (MA375 cells) | Increase in migration of HSC induced by MC-A375 (in words) (human HSC) | Migration of human HSC's treated with MC-MA375 (No. cells migrated per field) (human HSC) |
| --- | --- | --- | --- | --- | --- | --- | --- | --- |
| Oc1ccc(C=Cc2cc(O)cc(O)c2)cc1 [resveratrol, reference compound] | prevented | 16800 ± 250 No. cells per well | abolished | 13.5 ± 5.0 No. cells per field | prevented | 9050 ± 100 No. cells per well | abolished | 6.5 ± 1.4 No. cells migrated per field |
| Oc1ccc(/N=C/c2cc(O)cc(O)c2)cc1 [azaresveratrol, 5-((E)-(4-Hydroxyphenylimino)methyl)benzene-1,3-diol] | prevented | 16750 ± 135 No. cells per well | abolished | 15.5 ± 30 No. cells per field | prevented | 9250 ± 65 No. cells per well | abolished | 6.0 ± 1.3 No. cells migrated per field |
